Residue numbers refer to the chain shown, from its start.
Assays:
UL97 A594T = molecular target: T1, UL97 A594T (Human cytomegalovirus, UniProt Q68101, A594T); experiment: UL97 autophosphorylation protein kinase assay, A594T; type: biochemical
T1 construct: PCR reaction to generate the full length UL97; honey bee melittin secretion signal (N); made in house; host or cells: Sf21 insect cells, recombinant baculovirus (pMelBac C)
T1 sequence (Q68101 1-707 A594T): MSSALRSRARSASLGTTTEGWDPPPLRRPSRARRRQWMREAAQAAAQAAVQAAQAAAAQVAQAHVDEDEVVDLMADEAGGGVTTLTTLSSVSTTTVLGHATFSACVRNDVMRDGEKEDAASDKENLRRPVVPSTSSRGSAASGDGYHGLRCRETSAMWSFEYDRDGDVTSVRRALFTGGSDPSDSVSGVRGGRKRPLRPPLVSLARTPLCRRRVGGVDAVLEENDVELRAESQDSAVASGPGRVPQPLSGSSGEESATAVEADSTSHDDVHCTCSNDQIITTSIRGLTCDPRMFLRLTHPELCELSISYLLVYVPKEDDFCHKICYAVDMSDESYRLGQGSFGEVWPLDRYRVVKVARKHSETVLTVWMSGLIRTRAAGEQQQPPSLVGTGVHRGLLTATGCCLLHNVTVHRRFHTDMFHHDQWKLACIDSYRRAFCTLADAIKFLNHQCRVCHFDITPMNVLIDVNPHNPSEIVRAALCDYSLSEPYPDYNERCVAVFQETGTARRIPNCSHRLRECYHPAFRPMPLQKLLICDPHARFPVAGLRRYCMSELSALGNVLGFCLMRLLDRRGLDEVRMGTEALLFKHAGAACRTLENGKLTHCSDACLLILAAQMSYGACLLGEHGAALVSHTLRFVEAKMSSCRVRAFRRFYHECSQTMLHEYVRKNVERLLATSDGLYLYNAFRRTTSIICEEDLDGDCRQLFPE
Experimental: (§1) Analysis of the autophosphorylation of wild type and mutant UL97 protein species was performed by a standard protein kinase assay as previously described (46). Briefly, purified protein was added to 2× protein kinase buffer (100 mM Tris HCl, pH9.0, 20 mM MgCl2, 10 μM ATP, 4 mM DTT, 2 M NaCl) and 370 KBq [γ^32P] ATP (Amersham), made up to 20 μl with SDW and incubated at 37°C. The reactions were terminated by the addition of 2× SDS sample buffer followed by boiling for 3 minutes. The amount of radiolabelled phosphate incorporated by autophosphorylation was analysed by SDS-PAGE and measured using the Biorad Mulitanalyst. The protein kinase assays were initially performed for 2 to 60 minutes to determine the maximum rate of phosphate incorporation, all assays were then performed at the maximum rate which equated to 5 minutes.
(§2) Enzyme kinetic analysis was performed on the purified wild type and mutant UL97 protein species as above using increasing concentrations of ATP (2 μM to 20 μM). The amount of incorporated radiolabelled phosphate was plotted against the concentration of ATP in a Lineweaver Burke plot to determine the Km for ATP for each UL97 species. […]

wild type UL97 = molecular target: T2, wild type UL97 (Human cytomegalovirus, UniProt Q68101); experiment: UL97 autophosphorylation protein kinase assay, wild type; type: biochemical
T2 construct: PCR reaction to generate the full length UL97; honey bee melittin secretion signal (N); made in house; host or cells: Sf21 insect cells, recombinant baculovirus (pMelBac C)
T2 sequence (Q68101 whole entry): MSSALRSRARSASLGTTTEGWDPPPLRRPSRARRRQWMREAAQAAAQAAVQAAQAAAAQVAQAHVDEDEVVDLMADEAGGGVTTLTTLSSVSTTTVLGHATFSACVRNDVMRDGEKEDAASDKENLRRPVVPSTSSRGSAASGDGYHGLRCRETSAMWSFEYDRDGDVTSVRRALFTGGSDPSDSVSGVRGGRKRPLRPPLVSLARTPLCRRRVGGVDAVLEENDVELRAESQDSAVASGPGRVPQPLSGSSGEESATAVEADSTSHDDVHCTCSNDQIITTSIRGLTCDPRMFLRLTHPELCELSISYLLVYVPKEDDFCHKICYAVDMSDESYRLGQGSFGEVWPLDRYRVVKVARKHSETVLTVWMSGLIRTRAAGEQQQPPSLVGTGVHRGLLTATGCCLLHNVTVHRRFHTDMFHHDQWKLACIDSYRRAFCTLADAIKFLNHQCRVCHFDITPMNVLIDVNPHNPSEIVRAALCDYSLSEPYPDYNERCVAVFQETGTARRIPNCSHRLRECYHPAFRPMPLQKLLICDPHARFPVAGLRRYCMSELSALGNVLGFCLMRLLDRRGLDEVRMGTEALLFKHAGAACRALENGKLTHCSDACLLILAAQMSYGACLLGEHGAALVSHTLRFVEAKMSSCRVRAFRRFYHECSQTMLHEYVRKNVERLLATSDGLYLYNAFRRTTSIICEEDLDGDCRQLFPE
Experimental: as §1
Enzyme kinetic analysis was performed on the purified wild type and mutant UL97 protein species as above using increasing concentrations of ATP (2 μM to 20 μM). The amount of incorporated radiolabelled phosphate was plotted against the concentration of ATP in a Lineweaver Burke plot to determine the Km for ATP for each UL97 species. The effect of maribavir upon the rate of radiolabelled phosphate incorporation by wild type or mutant UL97 was determined by protein kinase assays at a fixed concentration of maribavir (0.5 μM) as above, or with increasing concentrations of maribavir (0.01 μM to 5.0 μM) to determine the IC50 of maribavir for each UL97 species. In order to determine the nature of the inhibition mediated by maribavir, plots of 1/v vs 1/ATP with increasing concentrations of maribavir were constructed. Competitive inhibition was evident if the family of lines cconverged on the y-axis at 1/Vmax. The change in slope caused by the addition of maribavir was used to calculate the Ki using standard enzyme kinetic equations viz.

UL97 V665I = molecular target: T3, UL97 V665I (Human cytomegalovirus, UniProt Q68101, V665I); experiment: UL97 autophosphorylation protein kinase assay, V665I; type: biochemical; settings: V665I mutant
T3 construct: PCR reaction to generate the full length UL97; honey bee melittin secretion signal (N); made in house; host or cells: Sf21 insect cells, recombinant baculovirus (pMelBac C)
T3 sequence (Q68101 1-707 V665I): T1 sequence (Q68101 1-707 A594T) with T594A, V665I
Experimental: as §1, §2

[1] = system: HCMV strains resistant to ganciclovir, foscarnet and cidofovir; design: method as in PMID 16962820; settings: cited from earlier work
[2] = system: wild type and mutant UL97 proteins; experiment: UL97 autophosphorylation protein kinase assay, all UL97 species pooled; type: biochemical, human cytomegalovirus; settings: maribavir 0.5 μM; every form of UL97 investigated (mutant and wild type)
Experimental: as §1, §2

Nc1ncnc2c1ncn2[C@@H]1O[C@H](COP(=O)(O)OP(=O)(O)OP(=O)(O)O)[C@@H](O)[C@H]1O [ATP]
Km (UL97 A594T; A594T, read-out: Km for ATP): 40 ± 4.2 µM | Km (wild type UL97; wild type UL97, ATP 2 μM to 20 μM, 5 minutes): 27 ± 2.2 µM

CC(C)Nc1nc2cc(Cl)c(Cl)cc2n1[C@H]1O[C@@H](CO)[C@H](O)[C@@H]1O [maribavir, 5,6-dichloro-2-(isopropylamino)-1-beta-L-ribofuranosyl-1H-benzimidazole]
IC50 (UL97 A594T; A594T mutant): 31 nM | % autophosphorylation Plus Maribavir (wild type UL97; maribavir 0.5 μM, normalised relative to wild type, mean and SD of triplicate): 4.5 ± 2.0% | nature of the inhibition (wild type UL97; wild type UL97, 1/v vs 1/ATP with increasing maribavir): competitive inhibitor of ATP | Ki (wild type UL97; wild type UL97, competitive with ATP (2 μM to 20 μM), Lineweaver Burke plot): 10 nM | IC50 (wild type UL97; wild type UL97, increasing concentrations of maribavir): 34 nM | IC50 (UL97 V665I): 30 nM | activity against resistant strains [1]: active | autophosphorylation as % of total phosphorylation of the wild type UL97 protein [2]: below 10%
